Test results taken from patent publication US10131652B2, “Pyrimidinyloxy benzene derivatives as herbicides” (E. I. DU PONT DE NEMOURS AND COMPANY, priority 2014, dated 2018).
Like-named read-outs stand apart in the source and are kept apart here.

Assays:
Type in all cases: in vivo
[1] = system: barnyardgrass (Echinochloa crus-galli); assay: Test B pre-/postemergence plant response; conditions: for pest or weed control at 31 g/ha: 31 g ai/ha
How it was run: (§1)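 Visual injury rating, 0 (no effect) to 100 (complete control), vs untreated controls after ~10 d greenhouse. Pre: directed soil spray after planting in loam/sand. Post: plants 2–10 cm, 1–2 leaf stage. Compound in non-phytotoxic solvent plus surfactant.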

[2] = system: corn (Zea mays); assay: Test B pre-/postemergence plant response; conditions: Zea mays, post-emergence, 240 h
How it was run: as §1

[3] = system: giant foxtail (Setaria faberii); assay: Test B pre-/postemergence plant response; conditions: for pest or weed control at 31 g/ha: 31 g ai/ha
How it was run: as §1

[4] = system: pigweed (Amaranthus retroflexus); assay: Test B pre-/postemergence plant response; conditions: for pest or weed control at 31 g/ha: 31 g ai/ha
How it was run: as §1

[5] = system: wheat (Triticum aestivum); assay: Test B pre-/postemergence plant response; conditions: Triticum aestivum, post-emergence, 240 h, read-out: Plant response rating, Wheat
How it was run: as §1

[6] = system: barnyardgrass (Echinochloa crus-galli); assay: Test C flooded paddy test plant response; conditions: Echinochloa crus-galli; Flood, 250 g ai/ha; scale of 0 to 100 where 0 is no effect and 100 is complete control; 13 to 15 days; read-out: Barnyardgrass plant response rating
How it was run: (§2)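 Plants grown to 2-leaf stage, flooded 3 cm above soil; compounds applied directly into paddy water, depth kept throughout. Visual rating versus controls after 13 to 15 days in greenhouse, 0 (no effect) to 100 (complete control).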

[7] = system: ducksalad (Heteranthera limosa); assay: Test C flooded paddy test plant response; conditions: Heteranthera limosa; Flood, 250 g ai/ha; scale of 0 to 100 where 0 is no effect and 100 is complete control; 13 to 15 days; read-out: Ducksalad plant response rating
How it was run: as §2

[8] = system: rice (Oryza sativa); assay: Test C flooded paddy test plant response; conditions: Oryza sativa; Flood, 250 g ai/ha; scale of 0 to 100 where 0 is no effect and 100 is complete control; 13 to 15 days; read-out: Rice plant response rating
How it was run: as §2

[9] = system: small-flower umbrella sedge (Cyperus difformis); assay: Test C flooded paddy test plant response; conditions: Cyperus difformis; Flood, 250 g ai/ha; scale of 0 to 100 where 0 is no effect and 100 is complete control; 13 to 15 days; read-out: Sedge, Umbrella plant response rating
How it was run: as §2

[10] = system: johnsongrass (Sorghum halepense); assay: Test D pre-/postemergence plant response; conditions: Sorghum halepense; for pest or weed control at 31 g/ha: 31 g ai/ha; for pest or weed control at 62 g/ha: 62 g ai/ha; for pest or weed control at 125 g/ha: 125 g ai/ha
How it was run: (§3)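 Plants are held in a greenhouse 13 to 15 days after spraying, then injury is rated by eye relative to controls on a 0 to 100 scale. Treatments are preemergence on freshly sown loam/sand pots or postemergence at 1- to 4-leaf stage in peat-based medium; surfactant-containing solvent formulation.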

[11] = system: lambsquarters (Chenopodium album); assay: Test D pre-/postemergence plant response; conditions: Chenopodium album; for pest or weed control at 31 g/ha: 31 g ai/ha; for pest or weed control at 62 g/ha: 62 g ai/ha; for pest or weed control at 125 g/ha: 125 g ai/ha
How it was run: as §3

[12] = Preemergence, 125 g ai/ha, 0 to 100 scale (0 no effect, 100 complete control)
[13] = 125 g ai/ha, postemergence, 0 to 100 scale, 0 no effect, 100 complete control
[14] = Postemergence, 31 g ai/ha, 0 to 100 scale (0 no effect, 100 complete control)
[15] = post-emergence, Postemergence, scale 0 to 100, 0 no effect, 100 complete control, read-out: Plant response rating, Johnsongrass
[16] = pre-emergence, Preemergence, scale 0 to 100 (0 no effect, 100 complete control), read-out: Plant response rating, Johnsongrass
[17] = post-emergence, Postemergence, scale 0 to 100, 0 no effect, 100 complete control, read-out: Plant response rating, Lambsquarters
[18] = pre-emergence, Preemergence, scale 0 to 100 (0 no effect, 100 complete control), read-out: Plant response rating, Lambsquarters

Fc1cccc(Oc2ncc(Br)cn2)c1-c1cc(C(F)F)no1 [Compound 145, 5-bromo-2-[2-[3-(difluoromethyl)-5-isoxazolyl]-3-fluorophenoxy]pyrimidine]
pest or weed control at 125 g/ha ([1]; Echinochloa crus-galli, post-emergence, 240 h, 125 g ai/ha, postemergence, 0 to 100 scale, 0 no effect, 100 complete control, read-out: Plant response rating, Barnyardgrass): 100% | pest or weed control at 31 g/ha ([1]; Echinochloa crus-galli, post-emergence, 240 h, Postemergence, 0 to 100 scale (0 no effect, 100 complete control), read-out: Plant response rating, Barnyardgrass): 40% | pest or weed control at 31 g/ha ([1]; Echinochloa crus-galli, pre-emergence, 240 h, Preemergence, 0 to 100 scale where 0 is no effect and 100 is complete control, read-out: Plant response rating, Barnyardgrass): 70% | Barnyardgrass plant response rating [1, 12]: 100 | Corn plant response rating (crop injury, 0 = no effect, 100 = complete kill) at 125 g/ha [2, 13]: 70% | Corn plant response rating (crop injury, 0 = no effect, 100 = complete kill) at 31 g/ha [2, 14]: 30% | Foxtail, Giant plant response rating [3, 12]: 100 | pest or weed control at 125 g/ha ([3]; Setaria faberi, post-emergence, 240 h, 125 g ai/ha, postemergence, 0 to 100 scale, 0 no effect, 100 complete control, read-out: Plant response rating, Foxtail, Giant): 90% | pest or weed control at 31 g/ha ([3]; Setaria faberi, post-emergence, 240 h, Postemergence, 0 to 100 scale (0 no effect, 100 complete control), read-out: Plant response rating, Foxtail, Giant): 70% | pest or weed control at 31 g/ha ([3]; Setaria faberi, pre-emergence, 240 h, Preemergence, 0 to 100 scale where 0 is no effect and 100 is complete control, read-out: Plant response rating, Foxtail, Giant): 90% | pest or weed control at 125 g/ha ([4]; Amaranthus retroflexus, post-emergence, 240 h, 125 g ai/ha, postemergence, 0 to 100 scale, 0 no effect, 100 complete control, read-out: Plant response rating, Pigweed): 100% | pest or weed control at 31 g/ha ([4]; Amaranthus retroflexus, post-emergence, 240 h, Postemergence, 0 to 100 scale (0 no effect, 100 complete control), read-out: Plant response rating, Pigweed): 100% | pest or weed control at 31 g/ha ([4]; Amaranthus retroflexus, pre-emergence, 240 h, Preemergence, 0 to 100 scale where 0 is no effect and 100 is complete control, read-out: Plant response rating, Pigweed): 100% | Pigweed plant response rating [4, 12]: 100 | plant injury at 125 g/ha [5, 13]: 70% | plant injury at 31 g/ha [5, 14]: 20% | pest or weed control at 250 g/ha [6]: 45% | pest or weed control at 250 g/ha [7]: 90% | plant injury at 250 g/ha [8]: 35% | pest or weed control at 250 g/ha [9]: 95% | pest or weed control at 31 g/ha ([10]; post-emergence, Postemergence, scale 0 to 100 (0 no effect, 100 complete control), read-out: Johnsongrass plant response rating): 5% | pest or weed control at 62 g/ha [10, 15]: 5% | pest or weed control at 125 g/ha [10, 15]: 40% | pest or weed control at 125 g/ha ([10]; pre-emergence, Preemergence, read-out: Plant response rating (scale 0 to 100), Johnsongrass): 95% | pest or weed control at 16 g/ha ([10]; pre-emergence, Preemergence, 16 g ai/ha, scale 0 to 100 (0 no effect, 100 complete control), read-out: Plant response rating, Johnsongrass): 10% | pest or weed control at 31 g/ha [10, 16]: 75% | pest or weed control at 62 g/ha [10, 16]: 90% | pest or weed control at 31 g/ha ([11]; post-emergence, Postemergence, scale 0 to 100 (0 no effect, 100 complete control), read-out: Lambsquarters plant response rating): 85% | pest or weed control at 62 g/ha [11, 17]: 85% | pest or weed control at 125 g/ha [11, 17]: 95% | pest or weed control at 125 g/ha ([11]; pre-emergence, Preemergence, read-out: Plant response rating (scale 0 to 100), Lambsquarters): 100% | pest or weed control at 16 g/ha ([11]; pre-emergence, Preemergence, 16 g ai/ha, scale 0 to 100 (0 no effect, 100 complete control), read-out: Plant response rating, Lambsquarters): 100% | pest or weed control at 31 g/ha [11, 18]: 100% | pest or weed control at 62 g/ha [11, 18]: 100%
